Measured values reported in ChEMBL document CHEMBL1201862, “PubChem BioAssay data set” (2004).
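1) Cells in 96-well plates. 2) Compound, 48 h, 5 concentrations. 3) Linear interpolation between surrounding doses. 4) Unreached endpoint = highest concentration. At the GI50, growth is halved.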 The source made the active and inactive calls. Cut-off read from the data, not from the text of the source: active = GI50 up to about 1.1 µM and inactive = higher.

How the values were obtained:
Assay in all cases: growth of human tumour cells (NCI), 48 h
UO-31 = system: UO-31
NCI-H460 = system: NCI-H460
EKVX = system: EKVX
HT-29 = system: HT-29
RPMI-8226 = system: RPMI-8226
SK-OV-3 = system: SK-OV-3
HCC 2998 = system: HCC 2998
RXF 393 = system: RXF 393
SF-539 = system: SF-539
UACC-257 = system: UACC-257
OVCAR-4 = system: OVCAR-4
TK-10 = system: TK-10
SF-268 = system: SF-268
A549 = system: A549
SR = system: SR
MDA-MB-435 = system: MDA-MB-435
NCI/ADR-RES = system: NCI/ADR-RES
MCF7 = system: MCF7
DU-145 = system: DU-145

In the case of `C[Si](C)(C)C1(Sc2ccccc2)SCCCS1`, the GI50 (UO-31) was 6.27 µM (inactive), the GI50 (NCI-H460) was 52.8 µM (inactive) and the GI50 (EKVX) was 47.9 µM (inactive). For the same compound, the GI50 (HT-29) was 38.5 µM (inactive), the GI50 (RPMI-8226) was 24.6 µM (inactive) and the GI50 (SK-OV-3) was > 100 µM (inactive). For the same compound, the GI50 (HCC 2998) was 31.5 µM (inactive), the GI50 (RXF 393) was 32.5 µM (inactive) and the GI50 (SF-539) was 24.9 µM (inactive). The GI50 (UACC-257) was 38.7 µM (inactive), the GI50 (OVCAR-4) was 57.1 µM (inactive) and the GI50 (TK-10) was > 100 µM (inactive). The GI50 (SF-268) was 31.8 µM (inactive) and the GI50 (A549) was 31.9 µM (inactive).
With `COC(=O)[C@@H](O)[C@]1(C(=O)OC)C2O[C@@H](OC)[C@@H]1CCCCCC[C@H]2O` the GI50 (SR) was > 100 µM (inactive), the GI50 (UO-31) was > 100 µM (inactive) and the GI50 (MDA-MB-435) was > 100 µM (inactive). For the same compound, the GI50 (NCI-H460) was > 100 µM (inactive), the GI50 (EKVX) was > 100 µM (inactive) and the GI50 (HT-29) was > 100 µM (inactive). The GI50 (RPMI-8226) was > 100 µM (inactive), the GI50 (SK-OV-3) was > 100 µM (inactive) and the GI50 (HCC 2998) was > 100 µM (inactive). The GI50 (NCI/ADR-RES) was > 100 µM (inactive), the GI50 (RXF 393) was > 100 µM (inactive) and the GI50 (SF-539) was > 100 µM (inactive). The GI50 (UACC-257) was > 100 µM (inactive), the GI50 (OVCAR-4) was > 100 µM (inactive) and the GI50 (TK-10) was > 100 µM (inactive). The GI50 (SF-268) was > 100 µM (inactive) and the GI50 (A549) was > 100 µM (inactive).
With `Cc1ccc2c(c1)C1(C)OC(CC(N)C1O)O2` (stereo unspecified) the GI50 (UO-31) was > 100 µM (inactive), the GI50 (NCI-H460) was > 100 µM (inactive) and the GI50 (EKVX) was > 100 µM (inactive). For the same compound, the GI50 (HT-29) was > 100 µM (inactive), the GI50 (RPMI-8226) was > 100 µM (inactive) and the GI50 (SK-OV-3) was > 100 µM (inactive). For the same compound, the GI50 (RXF 393) was > 100 µM (inactive), the GI50 (SF-539) was > 100 µM (inactive) and the GI50 (UACC-257) was > 100 µM (inactive). For the same compound, the GI50 (TK-10) was > 100 µM (inactive) and the GI50 (A549) was > 100 µM (inactive).
With `CN(C)CCOC1(Cc2ccc(Cl)cc2Cl)CCC(C(C)(C)C)CC1` (stereo unspecified) the GI50 (SR) was 0.0266 µM (active), the GI50 (MDA-MB-435) was 1.64 µM (inactive) and the GI50 (NCI-H460) was < 0.01 µM (active). For the same compound, the GI50 (HT-29) was 1.43 µM (inactive), the GI50 (RPMI-8226) was 1.6 µM (inactive) and the GI50 (SK-OV-3) was 10.5 µM (inactive). For the same compound, the GI50 (HCC 2998) was 1.57 µM (inactive), the GI50 (NCI/ADR-RES) was 1.47 µM (inactive) and the GI50 (MCF7) was 2.19 µM (inactive). The GI50 (RXF 393) was 1.97 µM (inactive), the GI50 (SF-539) was 2.02 µM (inactive) and the GI50 (UACC-257) was 1.11 µM (active). For the same compound, the GI50 (OVCAR-4) was 2.42 µM (inactive), the GI50 (TK-10) was 1.26 µM (inactive) and the GI50 (SF-268) was 3.01 µM (inactive). For the same compound, the GI50 (A549) was 2.23 µM (inactive).
In the case of `c1cc(C[S+]2CCCC2)oc1C[S+]1CCCC1`, the GI50 (UO-31) was > 100 µM (inactive), the GI50 (MDA-MB-435) was > 100 µM (inactive) and the GI50 (NCI-H460) was > 100 µM (inactive). The GI50 (EKVX) was > 100 µM (inactive), the GI50 (HT-29) was > 100 µM (inactive) and the GI50 (SK-OV-3) was > 100 µM (inactive). For the same compound, the GI50 (HCC 2998) was > 100 µM (inactive), the GI50 (NCI/ADR-RES) was > 100 µM (inactive) and the GI50 (DU-145) was > 100 µM (inactive). The GI50 (RXF 393) was > 100 µM (inactive), the GI50 (SF-539) was > 100 µM (inactive) and the GI50 (UACC-257) was > 100 µM (inactive). The GI50 (OVCAR-4) was > 100 µM (inactive), the GI50 (TK-10) was > 100 µM (inactive) and the GI50 (SF-268) was > 100 µM (inactive). For the same compound, the GI50 (A549) was > 100 µM (inactive).
For `CC1=CC(/C=C(\C)CCCc2ccoc2)C2(OC(=O)C(C)=C2O)[C@H]2C1CC[C@@H]2C` (stereo partly specified), the GI50 (UO-31) was 16.5 µM (inactive), the GI50 (EKVX) was 31.7 µM (inactive) and the GI50 (HT-29) was 34.3 µM (inactive). For the same compound, the GI50 (RPMI-8226) was 13.3 µM (inactive), the GI50 (SK-OV-3) was 26.2 µM (inactive) and the GI50 (HCC 2998) was 29.9 µM (inactive). The GI50 (RXF 393) was 18.3 µM (inactive), the GI50 (SF-539) was 17.5 µM (inactive) and the GI50 (UACC-257) was 29.5 µM (inactive). For the same compound, the GI50 (TK-10) was 29.2 µM (inactive) and the GI50 (A549) was 23.4 µM (inactive).
In the case of `C(/C=N/N=C1NCCCCN1)=N\N=C1NCCCCN1`, the GI50 (SR) was > 100 µM (inactive), the GI50 (UO-31) was > 100 µM (inactive) and the GI50 (MDA-MB-435) was > 100 µM (inactive). For the same compound, the GI50 (NCI-H460) was > 100 µM (inactive), the GI50 (EKVX) was > 100 µM (inactive) and the GI50 (HT-29) was > 100 µM (inactive). For the same compound, the GI50 (SK-OV-3) was > 100 µM (inactive), the GI50 (HCC 2998) was > 100 µM (inactive) and the GI50 (NCI/ADR-RES) was > 100 µM (inactive). The GI50 (MCF7) was > 100 µM (inactive), the GI50 (SF-539) was > 100 µM (inactive) and the GI50 (UACC-257) was > 100 µM (inactive). For the same compound, the GI50 (OVCAR-4) was > 100 µM (inactive), the GI50 (TK-10) was > 100 µM (inactive) and the GI50 (SF-268) was > 100 µM (inactive). For the same compound, the GI50 (A549) was > 100 µM (inactive).
